According to patent publication US9670189B2, “Substituted condensed pyrimidine compounds” (GRÜNENTHAL GMBH, priority 2013, dated 2017):

Assays:
human PDE4B1 = target: T1, human PDE4B1 (Homo sapiens, UniProt Q07343); experiment: cAMP HTRF assay to determine the activity of hPDE4B1; type: biochemical; conditions: 1 μM test concentration; human recombinant PDE4B1, cAMP 40 nM; read-out: Inhibition at 1 μM test concentration [%] (Percentage inhibition of PDE4B)
T1 construct: host or cells: Sf9 cells
T1 sequence (Q07343 whole entry): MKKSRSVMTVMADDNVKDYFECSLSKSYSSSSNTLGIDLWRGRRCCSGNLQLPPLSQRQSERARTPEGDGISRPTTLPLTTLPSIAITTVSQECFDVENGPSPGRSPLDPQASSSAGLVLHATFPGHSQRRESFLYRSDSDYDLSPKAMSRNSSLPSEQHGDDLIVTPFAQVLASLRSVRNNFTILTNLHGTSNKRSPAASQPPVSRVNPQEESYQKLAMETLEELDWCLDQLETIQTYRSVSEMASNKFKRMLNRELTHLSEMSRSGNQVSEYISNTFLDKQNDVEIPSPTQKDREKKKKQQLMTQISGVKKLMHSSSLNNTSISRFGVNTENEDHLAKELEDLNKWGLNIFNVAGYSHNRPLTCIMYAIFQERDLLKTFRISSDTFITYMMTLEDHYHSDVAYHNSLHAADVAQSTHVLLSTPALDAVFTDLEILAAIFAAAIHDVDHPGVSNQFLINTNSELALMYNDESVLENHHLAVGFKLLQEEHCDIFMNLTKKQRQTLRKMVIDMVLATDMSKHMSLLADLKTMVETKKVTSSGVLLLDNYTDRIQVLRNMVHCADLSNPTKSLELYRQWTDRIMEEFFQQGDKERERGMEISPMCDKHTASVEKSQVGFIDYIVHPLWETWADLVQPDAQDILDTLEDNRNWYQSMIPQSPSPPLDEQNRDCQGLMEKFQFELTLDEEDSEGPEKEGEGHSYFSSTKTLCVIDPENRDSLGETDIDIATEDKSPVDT
Method: cAMP HTRF® Assay to Determine the Activity of hPDE4B1
The inhibiting effect of the compounds on the enzyme activity of human PDE4B1 was measured by the quantification of 5′-adenosine monophosphate (5′-AMP), which is formed from 3′,5′-adenosine monophosphate (cAMP). Human recombinant enzyme, expressed in Sf9 cells, and the HTRF (homogeneous time-resolved fluorescence) detection method were used in the assay.
The test compound or water (control) was mixed with the human recombinant PDE4B1 enzyme (4.8 U) in a buffer consisting of 44.4 mM tris-HCl, 5.28 mM MgCl2, 2.64 mM DTT and 0.044% Tween 20 (pH 7.8). After adding the cAMP enzyme substrate (final concentration 40 nM) the mixture was incubated for 30 minutes at room temperature. Then a fluorescence acceptor (Dye2 marked with cAMP), a fluorescence donor (anti-cAMP antibody marked with a europium cryptate) and the non-specific phosphodiesterase inhibitor IBMX (3-isobutyl-1-methylxanthine; final concentration 1 mM) were added. After 60 minutes the fluorescence transfer, which correlates with the amount of remaining cAMP, was measured with a microplate reader (Rubystar, BMG) at λex=337 nm, λem=620 nm and λem=665 nm. The enzyme activity was calculated from the quotient formed from the measured signal at 665 nm and that at 620 nm. The result was expressed as the percentage inhibition of enzyme activity of the control (without PDE4 inhibitor) (literature: N. Saldou et al., Comparison of recombinant human PDE4 isoforms: interaction with substrate and inhibitors, Cell. Signal. Vol. 10, No. 6, 427-440, 1998). The enzyme was omitted for measurement of the basal control.

Row | inhibition at 1 µM (human PDE4B1) | melting point | SMILES
1 | 68% | 263 to 264 °C | COc1ccc(-c2nc3c(c(Oc4ccc(CC(=O)O)cc4)n2)CCC3)cc1Br [Compound 14, 2-(4-(2-(3-Bromo-4-methoxyphenyl)-6,7-dihydro-5H-cyclopenta[d]pyrimidin-4-yloxy)phenyl)acetic acid]
2 | 42% | – | O=C(O)Cc1ccc(Oc2nc(-c3cccc(Br)c3)nc3c2CCC3)cc1 [Compound 54, 2-(4-((2-(3-Bromophenyl)-6,7-dihydro-5H-cyclopenta[d]pyrimidin-4-yl)oxy)phenyl)acetic acid]
3 | 65% | – | Cc1ccc(-c2nc3c(c(Oc4ccc(CC(=O)O)cc4)n2)CCC3)s1 [Compound 58, 2-(4-((2-(5-Methylthiophen-2-yl)-6,7-dihydro-5H-cyclopenta[d]pyrimidin-4-yl)oxy)phenyl)acetic acid]
4 | 62% | – | CC1Cc2nc(-c3ccc(Cl)s3)nc(Oc3ccc(CC(=O)O)cc3)c2C1 (centres unmarked) [Compound 59, 2-(4-((2-(5-Chlorothiophen-2-yl)-6-methyl-6,7-dihydro-5H-cyclopenta[d]pyrimidin-4-yl)oxy)phenyl)acetic acid]
